What was measured:
OCI-LY-10 [1] = assay: Combined drug treatment cell viability, CellTiter-Glo assay (Example 1); format: cell-based; conditions: IDH1i 10 uM / MALT1i 5 uM / medium alone, 3 days
Description: (§1) DLBCL cells at either 1×10^4 cells or 2×10^4 cells were plated onto each well of a 96-W plate (Table 1).
(§2) The stock solutions for the IDH1 inhibitor AGI5198 and the MALT1 inhibitor MI-2 were each prepared at 50 mM concentration.
(§3) The 96-W plate was then incubated for 3 days. Cell viability was examined using a CellTiter-Glo assay.
(§4) A 40 μL of CellTiter-Glo reagent was added directly into each well of the 96-W plate. The plate was then shaken on a Shaker (Labsystem Wellmix) at speed 5 for 10-20 min at room temperature. Next, 100 μL of the mixed medium was transferred to a white, non-transparent, flat bottom 96-W plate for assaying. A Flexstation 3 luminometer was used for detecting and measuring the luminescent signals. Measurements were taken at room temperature.
(§5) In general, the combination is described as synergistic (CI<1), additive (CI=1), or antagonistic (CI>1). Synergism is further separated into very strong synergism (<0.1), strong synergism (0.1-0.3), synergism (0.3-0.7), moderate synergism (0.7-0.85), and slight synergism (0.85-0.9).

OCI-LY-3 [2] = assay: as above; format: cell-based; conditions: IDH1i 10 uM / MALT1i 5 uM / medium alone, 3 days
Description: as §1, §2, §3, §4, §5

SU-DHL-2 [3] = assay: as above; format: cell-based; conditions: IDH1i 10 uM / MALT1i 200 nM / medium alone, 3 days
Description: as §1, §2, §3, §4, §5

TMD8 [4] = assay: as above; format: cell-based; conditions: IDH1i 10 uM / MALT1i 100 nM / medium alone, 3 days
Description: as §1, §2, §3, §4, §5

U2932 [5] = assay: as above; format: cell-based; conditions: IDH1i 10 uM / MALT1i 200 nM / medium alone, 3 days
Description: as §1, §2, §3, §4, §5

TMD8 [6] = assay: Combined drug treatment cell viability, CellTiter-Glo assay (Example 2); format: cell-based; conditions: JAK3 10 μM / MCL-1 3 μM / medium alone, 3 days
OCI-LY-10 [7] = assay: as above; format: cell-based; conditions: JAK3 10 μM / MCL-1 3 μM / medium alone, 3 days
OCI-LY-3 [8] = assay: as above; format: cell-based; conditions: JAK3 10 μM / MCL-1 3 μM / medium alone, 3 days
HBL-1 = assay: as above; format: cell-based; conditions: JAK3 10 μM / MCL-1 3 μM / medium alone, 3 days
U2932 [9] = assay: as above; format: cell-based; conditions: JAK3 10 μM / MCL-1 3 μM / medium alone, 3 days
SU-DHL-2 [10] = assay: as above; format: cell-based; conditions: JAK3 10 μM / MCL-1 3 μM / medium alone, 3 days
[11] = tested on: TMD8 cells expressing PIM1-WT; assay: Cell growth of modified TMD8 cells treated with ibrutinib; conditions: Homo sapiens
[12] = tested on: TMD8 cells expressing PIM1 L2V; assay: as above; conditions: Homo sapiens
[13] = tested on: TMD8 cells expressing PIM1 P81S; assay: as above; conditions: Homo sapiens
[14] = tested on: TMD8 cells expressing PIM1 S97N; assay: as above; conditions: Homo sapiens

C=CC(=O)N1CCC[C@@H](n2nc(-c3ccc(Oc4ccccc4)cc3)c3c(N)ncnc32)C1 [ibrutinib, 1-((R)-3-(4-amino-3-(4-phenoxyphenyl)-1H-pyrazolo[3,4-d]pyrimidin-1-yl)piperidin-1-yl)prop-2-en-1-one]
luminescence (CellTiter-Glo) (OCI-LY-10 [1]; ibrutinib 0.0256 nM): 61548.88 | luminescence (CellTiter-Glo) (OCI-LY-10 [1]; ibrutinib 0.128 nM): 68196.56 | luminescence (CellTiter-Glo) (OCI-LY-10 [1]; ibrutinib 0.64 nM): 63983.91 | luminescence (CellTiter-Glo) (OCI-LY-10 [1]; ibrutinib 3.2 nM): 51190.81 | luminescence (CellTiter-Glo) (OCI-LY-10 [1]; ibrutinib 16 nM): 27324.38 | luminescence (CellTiter-Glo) (OCI-LY-10 [1]; ibrutinib 80 nM): 23511.43 | luminescence (CellTiter-Glo) (OCI-LY-10 [1]; ibrutinib 400 nM): 23784.91 | luminescence (CellTiter-Glo) (OCI-LY-10 [1]; ibrutinib 2000 nM): 24452.84 | luminescence (CellTiter-Glo) (OCI-LY-10 [1]; ibrutinib 10000 nM): 24826.24 | luminescence (CellTiter-Glo) (OCI-LY-3 [2]; ibrutinib 0.0256 nM): 63957.70 | luminescence (CellTiter-Glo) (OCI-LY-3 [2]; ibrutinib 0.128 nM): 59441.78 | luminescence (CellTiter-Glo) (OCI-LY-3 [2]; ibrutinib 0.64 nM): 63322.70 | luminescence (CellTiter-Glo) (OCI-LY-3 [2]; ibrutinib 3.2 nM): 66789.02 | luminescence (CellTiter-Glo) (OCI-LY-3 [2]; ibrutinib 16 nM): 64655.70 | luminescence (CellTiter-Glo) (OCI-LY-3 [2]; ibrutinib 80 nM): 68972.20 | luminescence (CellTiter-Glo) (OCI-LY-3 [2]; ibrutinib 400 nM): 64472.02 | luminescence (CellTiter-Glo) (OCI-LY-3 [2]; ibrutinib 2000 nM): 55749.79 | luminescence (CellTiter-Glo) (OCI-LY-3 [2]; ibrutinib 10000 nM): 63477.51 | luminescence (CellTiter-Glo) (SU-DHL-2 [3]; ibrutinib 0.0256 nM): 141202.0 | luminescence (CellTiter-Glo) (SU-DHL-2 [3]; ibrutinib 0.128 nM): 146159.1 | luminescence (CellTiter-Glo) (SU-DHL-2 [3]; ibrutinib 0.64 nM): 159399.0 | luminescence (CellTiter-Glo) (SU-DHL-2 [3]; ibrutinib 3.2 nM): 161613.5 | luminescence (CellTiter-Glo) (SU-DHL-2 [3]; ibrutinib 16 nM): 155353.5 | luminescence (CellTiter-Glo) (SU-DHL-2 [3]; ibrutinib 80 nM): 164140.7 | luminescence (CellTiter-Glo) (SU-DHL-2 [3]; ibrutinib 400 nM): 159908.6 | luminescence (CellTiter-Glo) (SU-DHL-2 [3]; ibrutinib 2000 nM): 154426.1 | luminescence (CellTiter-Glo) (SU-DHL-2 [3]; ibrutinib 10000 nM): 111485.8 | luminescence (CellTiter-Glo) (TMD8 [4]; ibrutinib 0.0256 nM): 32496.06 | luminescence (CellTiter-Glo) (TMD8 [4]; ibrutinib 0.128 nM): 32828.16 | luminescence (CellTiter-Glo) (TMD8 [4]; ibrutinib 0.64 nM): 29180.29 | luminescence (CellTiter-Glo) (TMD8 [4]; ibrutinib 3.2 nM): 31383.77 | luminescence (CellTiter-Glo) (TMD8 [4]; ibrutinib 16 nM): 27190.31 | luminescence (CellTiter-Glo) (TMD8 [4]; ibrutinib 80 nM): 28263.05 | luminescence (CellTiter-Glo) (TMD8 [4]; ibrutinib 400 nM): 25674.76 | luminescence (CellTiter-Glo) (TMD8 [4]; ibrutinib 2000 nM): 23421.20 | luminescence (CellTiter-Glo) (TMD8 [4]; ibrutinib 10000 nM): 10819.72 | luminescence (CellTiter-Glo) (U2932 [5]; ibrutinib 0.0256 nM): 63123.80 | luminescence (CellTiter-Glo) (U2932 [5]; ibrutinib 0.128 nM): 57150.28 | luminescence (CellTiter-Glo) (U2932 [5]; ibrutinib 0.64 nM): 53722.16 | luminescence (CellTiter-Glo) (U2932 [5]; ibrutinib 3.2 nM): 53031.79 | luminescence (CellTiter-Glo) (U2932 [5]; ibrutinib 16 nM): 51023.93 | luminescence (CellTiter-Glo) (U2932 [5]; ibrutinib 80 nM): 49777.58 | luminescence (CellTiter-Glo) (U2932 [5]; ibrutinib 400 nM): 46009.54 | luminescence (CellTiter-Glo) (U2932 [5]; ibrutinib 2000 nM): 46858.01 | luminescence (CellTiter-Glo) (U2932 [5]; ibrutinib 10000 nM): 37935.94 | luminescence (CellTiter-Glo) (TMD8 [6]; ibrutinib 0.0512 nM): 28324.66 | luminescence (CellTiter-Glo) (TMD8 [6]; ibrutinib 0.256 nM): 28516.97 | luminescence (CellTiter-Glo) (TMD8 [6]; ibrutinib 1.28 nM): 28727.97 | luminescence (CellTiter-Glo) (TMD8 [6]; ibrutinib 6.4 nM): 28578.40 | luminescence (CellTiter-Glo) (TMD8 [6]; ibrutinib 32 nM): 28802.75 | luminescence (CellTiter-Glo) (TMD8 [6]; ibrutinib 160 nM): 29096.55 | luminescence (CellTiter-Glo) (TMD8 [6]; ibrutinib 800 nM): 25963.61 | luminescence (CellTiter-Glo) (TMD8 [6]; ibrutinib 20000 nM): 5261.63 | luminescence (CellTiter-Glo) (TMD8 [6]; ibrutinib 40000 nM): 22488.80 | luminescence (CellTiter-Glo) (OCI-LY-10 [7]; ibrutinib 0.0512 nM): 46968.14 | luminescence (CellTiter-Glo) (OCI-LY-10 [7]; ibrutinib 1.28 nM): 28222.33 | luminescence (CellTiter-Glo) (OCI-LY-10 [7]; ibrutinib 6.4 nM): 17144.41 | luminescence (CellTiter-Glo) (OCI-LY-10 [7]; ibrutinib 32 nM): 14003.51 | luminescence (CellTiter-Glo) (OCI-LY-10 [7]; ibrutinib 160 nM): 13712.84 | luminescence (CellTiter-Glo) (OCI-LY-10 [7]; ibrutinib 800 nM): 14708.66 | luminescence (CellTiter-Glo) (OCI-LY-10 [7]; ibrutinib 20000 nM): 14261.89 | luminescence (CellTiter-Glo) (OCI-LY-10 [7]; ibrutinib 40000 nM): 15817.53 | luminescence (CellTiter-Glo) (OCI-LY-3 [8]; ibrutinib 0.0512 nM): 80095.49 | luminescence (CellTiter-Glo) (OCI-LY-3 [8]; ibrutinib 0.256 nM): 81910.97 | luminescence (CellTiter-Glo) (OCI-LY-3 [8]; ibrutinib 1.28 nM): 89730.66 | luminescence (CellTiter-Glo) (OCI-LY-3 [8]; ibrutinib 6.4 nM): 81709.84 | luminescence (CellTiter-Glo) (OCI-LY-3 [8]; ibrutinib 32 nM): 80596.96 | luminescence (CellTiter-Glo) (OCI-LY-3 [8]; ibrutinib 160 nM): 84190.37 | luminescence (CellTiter-Glo) (OCI-LY-3 [8]; ibrutinib 800 nM): 82227.41 | luminescence (CellTiter-Glo) (OCI-LY-3 [8]; ibrutinib 20000 nM): 69084.64 | luminescence (CellTiter-Glo) (OCI-LY-3 [8]; ibrutinib 40000 nM): 75112.98 | luminescence (CellTiter-Glo) (HBL-1; ibrutinib 0.0512 nM): 46288.31 | luminescence (CellTiter-Glo) (HBL-1; ibrutinib 0.256 nM): 42826.48 | luminescence (CellTiter-Glo) (HBL-1; ibrutinib 1.28 nM): 43461.99 | luminescence (CellTiter-Glo) (HBL-1; ibrutinib 6.4 nM): 38857.83 | luminescence (CellTiter-Glo) (HBL-1; ibrutinib 32 nM): 35516.66 | luminescence (CellTiter-Glo) (HBL-1; ibrutinib 160 nM): 35090.31 | luminescence (CellTiter-Glo) (HBL-1; ibrutinib 800 nM): 35103.71 | luminescence (CellTiter-Glo) (HBL-1; ibrutinib 20000 nM): 16831.87 | luminescence (CellTiter-Glo) (HBL-1; ibrutinib 40000 nM): 36806.47 | luminescence (CellTiter-Glo) (U2932 [9]; ibrutinib 0.0512 nM): 62396.81 | luminescence (CellTiter-Glo) (U2932 [9]; ibrutinib 0.256 nM): 60528.12 | luminescence (CellTiter-Glo) (U2932 [9]; ibrutinib 1.28 nM): 60811.50 | luminescence (CellTiter-Glo) (U2932 [9]; ibrutinib 6.4 nM): 58640.71 | luminescence (CellTiter-Glo) (U2932 [9]; ibrutinib 32 nM): 57009.94 | luminescence (CellTiter-Glo) (U2932 [9]; ibrutinib 160 nM): 55090.45 | luminescence (CellTiter-Glo) (U2932 [9]; ibrutinib 800 nM): 54579.83 | luminescence (CellTiter-Glo) (U2932 [9]; ibrutinib 20000 nM): 18900.83 | luminescence (CellTiter-Glo) (U2932 [9]; ibrutinib 40000 nM): 55951.28 | luminescence (CellTiter-Glo) (SU-DHL-2 [10]; ibrutinib 0.0512 nM): 168606.0 | luminescence (CellTiter-Glo) (SU-DHL-2 [10]; ibrutinib 0.256 nM): 180865.8 | luminescence (CellTiter-Glo) (SU-DHL-2 [10]; ibrutinib 1.28 nM): 185508.3 | luminescence (CellTiter-Glo) (SU-DHL-2 [10]; ibrutinib 6.4 nM): 178437.4 | luminescence (CellTiter-Glo) (SU-DHL-2 [10]; ibrutinib 32 nM): 180464.1 | luminescence (CellTiter-Glo) (SU-DHL-2 [10]; ibrutinib 160 nM): 183505.7 | luminescence (CellTiter-Glo) (SU-DHL-2 [10]; ibrutinib 800 nM): 181165.6 | luminescence (CellTiter-Glo) (SU-DHL-2 [10]; ibrutinib 20000 nM): 4650.6 | luminescence (CellTiter-Glo) (SU-DHL-2 [10]; ibrutinib 40000 nM): 180616.8 | EC50 [11]: 76 nM | EC50 [12]: > 1000 nM | EC50 [13]: > 1000 nM | EC50 [14]: > 1000 nM

— patent publication US9730938B2, “Bruton's tyrosine kinase inhibitor combinations and uses thereof” (Pharmacyclics LLC, priority 2014, dated 2017)
